Measured values published in patent publication US20090209560A1, “ANTI-INFLAMMATION ACTIVITY OF NEWLY SYNTHESIZED XANTHINE DERIVATIVES KMUP-1 AND KMUP-3” (KAOHSIUNG MEDICAL UNIVERSITY, priority 2006, published 2009).

Assays:
Type in all cases: cell-based, rat
[1] = tested on: nitrite/nitrate (NO); test: NO level measured by nitrite/nitrate in TSMC culture medium (colorimetric assay); conditions: 10 μM, 20 min pretreatment, then TNF-α 100 ng/ml for 9 hrs; FIG. 11
Description: (§1) The tracheal smooth muscle cell (TSM) culture is prepared from male Wistar rats purchased from the National Laboratory Animal Breeding and Research Center (Taipei, Taiwan).
(§2) The Wistar rats were injected intraperitoneally with a lethal dose of pentobarbital. The tracheas were excised and cut longitudinally through the cartilage. Using a dissecting microscope, TSM strips were dissected from the surrounding parenchyma. The epithelium was removed from the luminal surface, and bands of TSM were gently separated from the underlying connective tissue. The TSM strips were then chopped into small sections (1 mm^3) and incubated in Hank's balanced salt solution (NaCl, 138 mM; NaHCO3, 4 mM; KCl, 5 mM; KH2PO4, 0.3 mM; Na2HPO4, 0.3 mM; glucose, 1.0 mM) with 0.05% elastase type IV and 0.2% collagenase type IV (Invitrogen, Carlsbad, Calif.) for 30 min at 37° C. with gentle shaking. The solution of dissociated smooth muscle cells was centrifuged (6 min at 500 g) and the pellet was resuspended in 1:1 Dulbecco's modified Eagle's medium-Ham's F-12 medium supplemented with 10% fetal bovine serum (FBS), 0.244% NaHCO3, and 1% penicillin/streptomycin. Cells were cultured in a condition with or without KMUP-1, KMUP-3 and other negative or positive control agents, in 25 cm^2 flasks at 37° C. in humidified air containing 5% CO2. The medium was changed every 2-3 days.
Exposure of TSMCs to TNF-α (100 ng/ml) for 9 hrs led to accumulation of nitrite and nitrate in the culture medium, indicating the release of NO. Please refer to the FIG. 11, TSMCs were pretreated with KMUP-1, KMUP-3, 8-Br-cGMP and zaprinast for 20 minutes, and were further incubated in the presence of TNF-α (100 ng/ml) for 9 hrs. The concentrations of nitrite and nitrate (stable breakdown product of NO) of each sample were analyzed using nitrite/nitrate colorimetric assay kits (Cayman Chemical Co.) and run in duplicate.

[2] = tested on: PKA; test: PKA protein expression by immunoblotting in TNF-α-exposed TSMCs; conditions: TSMCs with TNF-α 100 ng/ml; for effect on TNF-α-induced increases of PKA protein: 10 μM, FIG. 8; for effect on TNF-α-increased expression of PKA protein: 0.1-100 μM, FIG. 7(A) as cited in text
Description: as §1, §2
(§3) To investigate the effects of TNF-α on PKG and PKA proteins, TSMCs were incubated with TNF-α (100 ng/ml) for 1, 3, 6, 9, 12, 18 and 24 hr, and the levels of PKG and PKA proteins were measured by immunoblotting. […] To investigate the effects of KMUP-1, KMUP-3, and the other PDE5 inhibitors zaprinast and exogenous 8-Br-cGMP on the TNF-α mediated pathway, TSMCs were incubated with TNF-α (100 ng/ml) and either one of the mentioned chemicals.

[3] = tested on: PKG; test: PKG protein expression by immunoblotting in TNF-α-exposed TSMCs; conditions: TSMCs with TNF-α 100 ng/ml; for effect on TNF-α-induced decreases of PKG protein: 10 μM, FIG. 8; for effect on TNF-α-induced decreases of PKG protein expression: concentration series, FIG. 7(B) as cited in text
Description: as §1, §2, §3

[4] = tested on: cGMP; test: Intracellular cGMP level in TSMCs (radioimmunoassay); conditions: 10 μM, 20 min pretreatment, then TNF-α 100 ng/ml for 9 hrs; FIG. 10(A)
Description: as §1
as §2, with “Cells were cultured in a condition with or without KMUP-1, KMUP-3 and other negative or positive control agents, in 25 cm^2 flasks at 37° C. in humidified air containing 5% CO2. The medium was changed every 2-3 days.” left out
Intracellular cGMP production was decreased and reaching minimal production at 9 hr in TSMCs in the presence of TNF-α (100 ng/ml). Intracellular concentrations of cAMP and cGMP in TSMC were measured to investigate the effects of KMUP-1, KMUP-3, and the other PDE5 inhibitor zaprinast or the isoproterenol thereto. […] The concentrations of cGMP of each sample were measured using cGMP-[125I] radioimmunoassay kits (GE Healthcare Bio-Sciences Corp., Piscataway, N.J.). […] As to the level of the cAMP, TSMCs were incubated with isoproterenol, KMUP-1, and KMUP-3 for 20 min, and further incubated in the absence or presence of TNF-α (100 ng/ml) for 9 hrs, where the concentrations of cAMP of each sample were measured using cAMP-[125I] radioimmunoassay kits (GE Healthcare Bio-Sciences Corp., Piscataway, N.J.).

[5] = tested on: sGCα1 and sGCβ1 proteins; test: sGC subunit protein expression by immunoblotting in TNF-α-exposed TSMCs; conditions: 10 μM; TSMCs with TNF-α 100 ng/ml; FIG. 5
Description: as §1, §2
(§4) To investigate the effects of TNF-α on iNOS and sGC proteins, TSMCs were incubated with TNF-α (100 ng/ml) for 1, 3, 6, 9, 12, 18 and 24 hr, and the levels of iNOS and sGC subunit proteins were measured by immunoblotting. […] In contrast to the increase expression of iNOS protein in FIG. 2, TNF-α in FIG. 3 decreased the expression of sGCα1 and sGCβ1 proteins in a time-dependent manner, with the maximal inhibition achieved at 9 hr. To investigate the effects of KMUP-1, KMUP-3, and the other PDE5 inhibitors zaprinast and exogenous 8-Br-cGMP on the TNF-α mediated pathway, TSMCs were incubated with TNF-α (100 ng/ml) and either one of the mentioned chemicals.

[6] = tested on: iNOS; test: iNOS protein expression by immunoblotting in TNF-α-exposed TSMCs; conditions: TSMCs with TNF-α 100 ng/ml
Description: as §1, §2, §4

[7] = tested on: COX-2; test: COX-2 protein expression by immunoblotting in TNF-α-exposed TSMCs; conditions: TSMCs with TNF-α 100 ng/ml, FIG. 9(B)
Description: The Wistar rats were injected intraperitoneally with a lethal dose of pentobarbital. The tracheas were excised and cut longitudinally through the cartilage. Using a dissecting microscope, TSM strips were dissected from the surrounding parenchyma. The epithelium was removed from the luminal surface, and bands of TSM were gently separated from the underlying connective tissue. The TSM strips were then chopped into small sections (1 mm^3) and incubated in Hank's balanced salt solution (NaCl, 138 mM; NaHCO3, 4 mM; KCl, 5 mM; KH2PO4, 0.3 mM; Na2HPO4, 0.3 mM; glucose, 1.0 mM) with 0.05% elastase type IV and 0.2% collagenase type IV (Invitrogen, Carlsbad, Calif.) for 30 min at 37° C. with gentle shaking. The solution of dissociated smooth muscle cells was centrifuged (6 min at 500 g) and the pellet was resuspended in 1:1 Dulbecco's modified Eagle's medium-Ham's F-12 medium supplemented with 10% fetal bovine serum (FBS), 0.244% NaHCO3, and 1% penicillin/streptomycin. […] The medium was changed every 2-3 days.
To investigate the effects of TNF-α on COX-2 protein, TSMCs were respectively incubated with or without TNF-α (100 ng/ml) for 1, 3, 6, 9, 12, 18 and 24 hr, and the levels of COX-2 proteins were measured by immunoblotting.

[8] = tested on: PGE2 and 6-keto-PGF1a; test: PGE2 and 6-keto-PGF1a release from TNF-α-exposed TSMCs (EIA); conditions: 10 μM, 20 min pretreatment, then TNF-α 100 ng/ml for 24 hrs; FIG. 12
Description: as §1, §2
Incubation of TSMCs with TNF-α (100 ng/ml) increased the releases of PGs, PGE2 and 6-keto-PGF1a, a PGI2 stable metabolite, and the greatest increases occurred were measured at 24 hr. Please refer to the FIG. 12, TSMCs were pretreated with KMUP-1 (10 μM), KMUP-3 (10 μM), dexamethasone (1 μM) and zaprinast (10 μM) for 20 minutes, and were further incubated in the presence of TNF-α (100 ng/ml) for 24 hrs, where the concentrations of PGE2 and 6-keto-PGF1a (stable metabolite of […]) in the culture medium were measured using PGE2 and 6-keto-PGF1a EIA assay kits (Cayman Chemical Co., Ann Arbor, Mich.) in duplicate.

[9] = tested on: cAMP; test: Intracellular cAMP level in TSMCs (radioimmunoassay); conditions: FIG. 10(B)
Description: as §1, §2
Intracellular cGMP production was decreased and reaching minimal production at 9 hr in TSMCs in the presence of TNF-α (100 ng/ml). Intracellular concentrations of cAMP and cGMP in TSMC were measured to investigate the effects of KMUP-1, KMUP-3, and the other PDE5 inhibitor zaprinast or the isoproterenol thereto. As to the level of cGMP, TSMCs were pretreated with KMUP-1, KMUP-3, and the other PDE5 inhibitor zaprinast for 20 minutes and were further incubated in the presence of TNF-α (100 ng/ml) for 9 hrs. The concentrations of cGMP of each sample were measured using cGMP-[125I] radioimmunoassay kits (GE Healthcare Bio-Sciences Corp., Piscataway, N.J.). […] As to the level of the cAMP, TSMCs were incubated with isoproterenol, KMUP-1, and KMUP-3 for 20 min, and further incubated in the absence or presence of TNF-α (100 ng/ml) for 9 hrs, where the concentrations of cAMP of each sample were measured using cAMP-[125I] radioimmunoassay kits (GE Healthcare Bio-Sciences Corp., Piscataway, N.J.).

[10] = in the presence of TNF-α 100 ng/ml for 9 hrs

## CCCOc1ccccc1-c1nc2nn[nH]c2c(=O)[nH]1 [zaprinast, reference compound]
[1]
  effect on TNF-α-induced production of nitrite/nitrate (NO levels): inhibited
[2]
  effect on TNF-α-induced increases of PKA protein: could not affect TNF-α-induced increases of PKA protein
[3]
  effect on TNF-α-induced decreases of PKG protein: reversed TNF-α-induced decreases of PKG protein
[4]
  effect on TNF-α-decreased intracellular cGMP: reversed to the basal level
[5]
  effect on TNF-α inhibition of sGCα1 and sGCβ1 protein expression: reversed
[6]; 10 μM, FIG. 4(B)
  effect on TNF-α-induced increases of iNOS expression: inhibited TNF-α-induced increases of iNOS expression to a similar extent

## CS(=O)(=O)Nc1ccc([N+](=O)[O-])cc1OC1CCCCC1 [NS-398, reference compound]
[7]; 10 μM pretreatment
  inhibition of TNF-α-induced COX-2 expression: significantly inhibit
[8]
  effect on TNF-α-induced PGE2 and 6-keto-PGF1a formation: significantly inhibited

## Cn1c(=O)c2c(ncn2CCN2CCN(c3ccc([N+](=O)[O-])cc3)CC2)n(C)c1=O [KMUP-3, 7-[2-[4-(4-nitrobenzene)piperazinyl]ethyl]-1,3-dimethylxanthine]
[1]
  effect on TNF-α-induced production of nitrite/nitrate (NO levels): inhibited
[2]
  effect on TNF-α-induced increases of PKA protein: could not affect TNF-α-induced increases of PKA protein
  effect on TNF-α-increased expression of PKA protein: not further increased
[3]
  effect on TNF-α-induced decreases of PKG protein: reversed TNF-α-induced decreases of PKG protein
  effect on TNF-α-induced decreases of PKG protein expression: reversed
[9]; 10 μM, in the absence of TNF-α
  production of cAMP compared to the control group: significantly increased
[9]; [10]
  production of cAMP compared to the control group: could not further increase
[4]
  effect on TNF-α-decreased intracellular cGMP: reversed to the basal level
[7]
  inhibition of TNF-α-induced COX-2 expression: not
[5]
  effect on TNF-α inhibition of sGCα1 and sGCβ1 protein expression: reversed
[8]
  effect on TNF-α-induced PGE2 and 6-keto-PGF1a formation: did not inhibit
[6]; 10 μM, FIG. 4(B)
  effect on TNF-α-induced increases of iNOS expression: inhibited TNF-α-induced increases of iNOS expression to a similar extent
[6]; 0.01-100 μM, FIG. 4(A)
  effect on TNF-α-induced increases of iNOS expression: inhibited TNF-α-induced increases of iNOS expression in a concentration-dependent manner

## Nc1nc2c(nc(Br)n2[C@@H]2O[C@@H]3COP(=O)(O)O[C@H]3[C@H]2O)c(=O)[nH]1 [8-Br-cGMP, reference compound]
[1]
  effect on TNF-α-induced production of nitrite/nitrate (NO levels): inhibited
[3]
  effect on TNF-α-induced decreases of PKG protein: reversed TNF-α-induced decreases of PKG protein
[5]
  effect on TNF-α inhibition of sGCα1 and sGCβ1 protein expression: reversed
[6]; 10 μM, FIG. 4(B)
  effect on TNF-α-induced increases of iNOS expression: inhibited TNF-α-induced increases of iNOS expression to a similar extent

## CC(C)NCC(O)c1ccc(O)c(O)c1 (stereo not shown) [isoproterenol, reference compound]
[9]; 10 μM, in the absence of TNF-α
  production of cAMP compared to the control group: significantly increased

## Nc1ncnc2c1nc(Br)n2[C@@H]1O[C@@H]2COP(=O)(O)O[C@H]2[C@H]1O [8-Br-cAMP, reference compound]
[2]
  effect on TNF-α-induced increases of PKA protein: could not affect TNF-α-induced increases of PKA protein

## Cn1c(=O)c2c(ncn2CCN2CCN(c3ccccc3Cl)CC2)n(C)c1=O [KMUP-1, 7-[2-[4-(2-chlorobenzene)piperazinyl]ethyl]-1,3-dimethylxanthine]
[1]
  effect on TNF-α-induced production of nitrite/nitrate (NO levels): inhibited
[2]
  effect on TNF-α-induced increases of PKA protein: could not affect TNF-α-induced increases of PKA protein
  effect on TNF-α-increased expression of PKA protein: not further increased
[3]
  effect on TNF-α-induced decreases of PKG protein: reversed TNF-α-induced decreases of PKG protein
  effect on TNF-α-induced decreases of PKG protein expression: reversed
[9]; 10 μM, in the absence of TNF-α
  production of cAMP compared to the control group: significantly increased
[9]; [10]
  production of cAMP compared to the control group: could not further increase
[4]
  effect on TNF-α-decreased intracellular cGMP: reversed to the basal level
[7]
  inhibition of TNF-α-induced COX-2 expression: not
[5]
  effect on TNF-α inhibition of sGCα1 and sGCβ1 protein expression: reversed
[8]
  effect on TNF-α-induced PGE2 and 6-keto-PGF1a formation: did not inhibit
[6]; 10 μM, FIG. 4(B)
  effect on TNF-α-induced increases of iNOS expression: inhibited TNF-α-induced increases of iNOS expression to a similar extent
[6]; 0.01-100 μM, FIG. 4(A)
  effect on TNF-α-induced increases of iNOS expression: inhibited TNF-α-induced increases of iNOS expression in a concentration-dependent manner
